Reference: publication PMC4864567, “Characterization of the ATP-Dependent Lon-Like Protease in Methanobrevibacter smithii” (Archaea, 2016)

What was measured:
[1] = target: T1, Lon-like-Ms (Methanobrevibacter smithii, UniProt A5UP31); test: fluorogenic peptide cleavage (MNA release); format: biochemical; conditions: ADP in place of ATP, with Mg2+; Glt-AAF-MNA, pH 8.0, 37 °C; called inhibitory, partial activity retained
T1 construct: gene Msm_1754
T1 sequence (A5UP31 1-682): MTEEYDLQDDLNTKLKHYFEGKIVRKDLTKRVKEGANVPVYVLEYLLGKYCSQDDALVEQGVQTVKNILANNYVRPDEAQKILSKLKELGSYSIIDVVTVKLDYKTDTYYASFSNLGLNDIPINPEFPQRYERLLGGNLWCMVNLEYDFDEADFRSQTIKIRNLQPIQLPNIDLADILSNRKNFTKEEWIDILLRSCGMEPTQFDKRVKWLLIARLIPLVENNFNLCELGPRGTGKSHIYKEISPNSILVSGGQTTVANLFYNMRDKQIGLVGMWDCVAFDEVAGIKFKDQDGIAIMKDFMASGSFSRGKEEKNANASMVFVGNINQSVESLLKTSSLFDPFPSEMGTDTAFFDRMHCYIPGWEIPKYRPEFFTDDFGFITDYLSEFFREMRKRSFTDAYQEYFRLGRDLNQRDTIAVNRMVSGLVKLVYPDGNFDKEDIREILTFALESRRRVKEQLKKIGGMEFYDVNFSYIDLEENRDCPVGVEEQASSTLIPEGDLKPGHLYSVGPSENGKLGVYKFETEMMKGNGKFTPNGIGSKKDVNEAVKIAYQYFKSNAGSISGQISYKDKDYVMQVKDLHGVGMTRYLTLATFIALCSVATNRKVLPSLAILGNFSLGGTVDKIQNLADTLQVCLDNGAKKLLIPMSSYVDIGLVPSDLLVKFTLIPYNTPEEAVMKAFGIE

[2] = target: T1, Lon-like-Ms; test: fluorogenic peptide cleavage (MNA release); format: biochemical; conditions: 0.3 mM Glt-AAF-MNA, 10 mM MgCl2, pH 8.0, 37 °C; nucleotide required for activity, inhibitory at rising concentration; not a fitted IC50
From the text: fluorogenic peptide cleavage (MNA release) on Lon-like-Ms | reaching a decrease by half at 1-mM ATP or AMP-PNP

| Structure (SMILES) | fluorogenic peptide cleavage (MNA release) [1] | concentration giving decrease by half [2] |
| --- | --- | --- |
| Nc1ncnc2c1ncn2[C@@H]1O[C@H](COP(=O)(O)OP(=O)(O)O)[C@@H](O)[C@H]1O [ADP] | ADP, a potent inhibitor of Lon from E. coli, also inhibited the activity of Lon-like-Ms | – |
| Nc1ncnc2c1ncn2[C@@H]1O[C@H](COP(=O)(O)OP(=O)(O)OP(=O)(O)O)[C@@H](O)[C@H]1O [ATP] | – | ~ 1 mM |
| Nc1ncnc2c1ncn2[C@@H]1O[C@H](COP(=O)(O)OP(=O)(O)NP(=O)(O)O)[C@@H](O)[C@H]1O [5′-adenylyl imidodiphosphate] | – | ~ 1 mM |
